Data on 38 compounds can be found in US10815238B2, “Antimicrobial compounds and methods of making and using the same” (BIOVERSYS AG, priority 2013, dated 2020).

Test [1] deals with Staphylococcus aureus (S. aureus) 11540 strain. The test is described as follows: Standard microdilution assay, MIC against S. aureus 11540. The settings on record: S. aureus 11540 strain, standard microdilution assay, cutoff 16 micrograms/mL, read-out: MIC S. aureus. The format is cell-based. The procedure: The in vitro activity of the compounds of the present invention can be determined. Antimicrobial testing is typically performed to determine the minimum inhibitory concentration (MIC). Minimum inhibitory concentrations (MICs) are determined by the microdilution method in a final volume of 100 μl according to protocols outlined by The Clinical and Laboratory Standards Institute (CLSI). Performance standards for reference strains are assessed within the same experimental design to maintain quality control. See, for example, Clinical Laboratory Standards Institute: Methods for dilution antimicrobial susceptibility tests for bacteria that grow aerobically M7-A8. Approved Standard-Eighth Edition. Wayne, Pa.: CLSI; December 2008; and Clinical Laboratory Standards Institute: Performance Standards for Antimicrobial Susceptibility Testing M100-S20; Approved Standard-Twentieth Edition. Wayne, Pa.: CLSI; June 2010.
The compounds of the present invention were tested for antimicrobial activity. The Compounds 1-582 were run against Eschericia coli (E. coli) strain ATCC25922 and Compounds 320-582 were run against Staphylococcus aureus (S. aureus) 11540 strain using a standard microdilution assay to determine minimum inhibitory concentrations (MICs). […] It will be recognized by one skilled in the art that the compounds can be assessed against other bacterial organisms and that the presentation of data for activity against Eschericia coli and Staphylococcus aureus are illustrative and in no way is intended to limit the scope of the present invention. The compounds of the present invention can be assayed against a range of other microorganisms depending upon the performance activity desired to be gathered. Furthermore, the “+” and “−” representation and the selection of a cutoff value of 16 micrograms/mL is also illustrative and in no way is intended to limit the scope of the present invention.
Background: Dilution methods test growth across graded concentrations, often in twofold steps.

Test [2] deals with Eschericia coli (E. coli) strain ATCC25922. The test is described as follows: Standard microdilution assay, MIC against E. coli ATCC25922. The class given is cell-based. The settings on record: Escherichia coli; E. coli strain ATCC25922, standard microdilution assay; cutoff 16 micrograms/mL; read-out: MIC E. Coli. The method, boiled down:
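Scoring as + or − used a 16 micrograms/mL cutoff on minimum inhibitory concentrations. These came from CLSI-standard microdilution, quality-controlled with reference strains tested in the same run.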

As usually defined, the MIC is the lowest concentration that inhibits growth of the organism. Consider `C[C@H](N)CCCc1cc(Cl)c(F)c(-c2cc3cn(-c4ccc([C@@H]5CCC[C@@H](CCC(N)=O)N5)cc4)c(=O)nc3[nH]2)c1` [Compound 511], for which the MIC in test [1] and in test [2] was under 16 µg/mL throughout.
`C[C@H](N)CCCc1cc(Cl)c(F)c(-c2cc3cn(-c4ccc(C5(CCN)CN(C(=N)N)C5)cc4)c(=O)nc3[nH]2)c1` [Compound 403]: the MIC in test [1] and in test [2] was under 16 µg/mL each time.
As for `C[C@H](N)CCCc1cc(Cl)c(F)c(-c2cc3cn(-c4ccc([C@H](C)NCC[C@@H](/C=C/Cl)NC(=N)N)cc4)c(=O)nc3[nH]2)c1` [Compound 389], the MIC in test [1] and in test [2] was under 16 µg/mL throughout.
`C[C@H](N)CCCc1cc(Cl)c(F)c(-c2cc3cn(-c4ccc([C@H](C)NCC[C@@H]5COC(=O)N5)cc4)c(=O)nc3[nH]2)c1` [Compound 386]: the MIC in test [1] and in test [2] was under 16 µg/mL in each case.
On to `C[C@H](N)CCCc1cc(Cl)c(F)c(-c2cc3cn(-c4ccc(C(=N)NCC[C@H](C)N)cc4)c(=O)nc3[nH]2)c1` [Compound 512], for which the MIC in test [1] and in test [2] was under 16 µg/mL in each case.
Turning to `C[C@H](N)CCCc1cc(OC(F)(F)F)c(F)c(-c2cc3cn(-c4ccc(C(=N)NCCCN)cc4)c(=O)nc3[nH]2)c1` [Compound 462], the MIC in test [1] and in test [2] was under 16 µg/mL in each case.
Take `C[C@@H](N)CCCc1cc(Cl)c(F)c(-c2cc3cn(-c4ccc([C@@H](C)NCCCNC(=N)N)cc4)c(=O)nc3[nH]2)c1` [Compound 370]: the minimal inhibitory concentration (MIC) in test [1] and in test [2] was under 16 µg/mL throughout.
As for `C[C@H](N)CCCc1cc(OC(F)(F)F)c(F)c(-c2cc3cn(-c4ccc(CNCC[C@@H](CN)NC(=N)N)cc4)c(=O)nc3[nH]2)c1` [Compound 376], the MIC in test [1] and in test [2] was under 16 µg/mL in each case.
Turning to `C[C@H](NCCCNC(=N)N)c1ccc(-n2cc3cc(-c4cc(CCC[C@@H](N)CN=[N+]=[N-])cc(Cl)c4F)[nH]c3nc2=O)cc1` [Compound 326], the MIC in test [1] and in test [2] was under 16 µg/mL each time.
As for `C[C@H](N)CCCc1cc(Cl)c(F)c(-c2cc3cn(-c4ccc(CN[C@H](CCNC(=N)N)CCc5nccs5)cc4)c(=O)nc3[nH]2)c1` [Compound 528], the MIC in test [1] and in test [2] was under 16 µg/mL throughout.
As to `C[C@H](N)CCCc1cc(OC(F)(F)F)c(F)c(-c2cc3cn(-c4ccc([C@@H]5COC[C@@H](CO)N5)cc4)c(=O)nc3[nH]2)c1` [Compound 453], the MIC in test [1] and in test [2] was over 16 µg/mL each time.
As for `C[C@H](N)CCCc1cc(OC(F)(F)F)c(F)c(-c2cc3cn(-c4ccc([C@@H]5CCC[C@@H](CCNC(=N)N)N5)cc4)c(=O)nc3[nH]2)c1` [Compound 430], the MIC in test [1] and in test [2] was under 16 µg/mL throughout.
In the case of `C[C@H](NCCCNC(=N)N)c1ccc(-n2cc3cc(-c4cc([C@H]5CC[C@@H](CN)O5)cc(Cl)c4F)[nH]c3nc2=O)cc1` [Compound 445], the MIC in test [1] and in test [2] was under 16 µg/mL throughout.
As for `COC[C@@H](CCNC(=N)N)NCc1ccc(-n2cc3cc(-c4cc(CCC[C@H](C)N)cc(OC(F)(F)F)c4F)[nH]c3nc2=O)cc1` [Compound 351], the MIC in test [1] and in test [2] was under 16 µg/mL throughout.
Regarding `C[C@H](N)CCCc1cc(Cl)c(F)c(-c2cc3cn(-c4ccc(CNCC[C@H](CN5CCOCC5)NC(=N)N)cc4)c(=O)nc3[nH]2)c1` [Compound 322], the MIC in test [1] and in test [2] was under 16 µg/mL each time.
Take `C[C@H](N)CCCc1cc(Cl)c(F)c(-c2cc3cn(-c4ccc([C@H]5CCC[C@@H](CCNC(=N)N)N5)cc4)c(=O)nc3[nH]2)c1` [Compound 444]: the MIC in test [1] and in test [2] was under 16 µg/mL throughout.
Consider `C[C@H](N)CCCc1cc(OC(F)(F)F)c(F)c(-c2cc3cn(-c4ccc([C@@H]5CCC[C@@H](CCN)N5)cc4)c(=O)nc3[nH]2)c1` [Compound 429], for which the minimum inhibitory concentration (MIC) in test [1] and in test [2] was under 16 µg/mL throughout.
For the compound `C[C@H](N)CCCc1cc(OC(F)(F)F)c(F)c(-c2cc3cn(-c4ccc([C@H](C)NCC[C@@H](CNC(=O)CN)NC(=N)N)cc4)c(=O)nc3[nH]2)c1` [Compound 423], the MIC in test [1] and in test [2] was under 16 µg/mL each time.
Turning to `C[C@H](N)CCCc1cc(OC(F)(F)F)c(F)c(-c2cc3cn(-c4ccc([C@@H](C)NCCCNC(=N)N)cc4)c(=O)nc3[nH]2)c1` [Compound 321], the MIC in test [1] and in test [2] was under 16 µg/mL throughout.
In the case of `N=C(N)NCC[C@H](CO)NCc1ccc(-n2cc3cc(-c4cc(CCC[C@@H](N)CO)cc(Cl)c4F)[nH]c3nc2=O)cc1` [Compound 377], the MIC in test [1] and in test [2] was under 16 µg/mL in each case.
On to `C[C@H](CCNC(=N)N)NCc1ccc(-n2cc3cc(-c4cc(CCC[C@@H](N)CO)cc(Cl)c4F)[nH]c3nc2=O)cc1` [Compound 450], for which the MIC in test [1] and in test [2] was under 16 µg/mL throughout.
As to `C=C[C@H](C[C@@H](C)NCc1ccc(-n2cc3cc(-c4cc(CCC[C@H](C)N)cc(OC(F)(F)F)c4F)[nH]c3nc2=O)cc1)NC(=N)N` [Compound 372], the MIC in test [1] and in test [2] was under 16 µg/mL throughout.
For the compound `C[C@H](N)CCCc1cc(OC(F)(F)F)c(F)c(-c2cc3cn(-c4ccc(C(O)[C@@H]5C[C@@H](NC(=N)N)CN5)cc4)c(=O)nc3[nH]2)c1` (stereo partly shown) [Compound 448], the MIC in test [1] and in test [2] was under 16 µg/mL in each case.
With `C[C@H](N)CCCc1cc(Cl)c(F)c(-c2cc3cn(-c4ccc([C@H](N)CCCNC(=N)N)cc4)c(=O)nc3[nH]2)c1` [Compound 456], the MIC in test [1] and in test [2] was under 16 µg/mL each time.
For the compound `C[C@H](N)CCN1CC[C@@H](c2cc3cn(-c4ccc(CNCCCNC(=N)N)cc4)c(=O)nc3[nH]2)C1` [Compound 572], the MIC in test [1] and in test [2] was under 16 µg/mL each time.
With `C[C@H](N)CCCc1cc(Cl)c(F)c(-c2cc3cn(-c4ccc(C(O)CNC(=N)N)cc4)c(=O)nc3[nH]2)c1` (stereo partly shown) [Compound 471], the MIC in test [1] and in test [2] was under 16 µg/mL in each case.
As to `C[C@H](N)CCCc1cc(Cl)c(F)c(-c2cc3cn(-c4ccc([C@H](N)CCNC(=N)N)cc4)c(=O)nc3[nH]2)c1` [Compound 442], the MIC in test [1] and in test [2] was under 16 µg/mL in each case.
For `C[C@H](N)CCCc1cc(Cl)c(F)c(-c2cc3cn(-c4ccc(CN[C@H](C)C[C@@H](CCO)NC(=N)N)cc4)c(=O)nc3[nH]2)c1` [Compound 381], the minimal inhibitory concentration (MIC) in test [1] and in test [2] was under 16 µg/mL throughout.
Turning to `CC[C@H](N)CCCc1cc(Cl)c(F)c(-c2cc3cn(-c4ccc(CN5CC[C@H](CN)NC5=N)cc4)c(=O)nc3[nH]2)c1` [Compound 416], the minimal inhibitory concentration (MIC) in test [1] and in test [2] was under 16 µg/mL throughout.
On to `C[C@H](N)CCCc1cc(Cl)c(F)c(-c2cc3cn(-c4ccc([C@@H]5CCC[C@@H](CNCC6CCCC6)N5)cc4)c(=O)nc3[nH]2)c1` [Compound 559], for which the MIC in test [1] and in test [2] was under 16 µg/mL throughout.
Consider `CC[C@H](N)CCCc1cc(Cl)c(F)c(-c2cc3cn(-c4ccc(CNCC[C@H](CN)NC(=N)N)cc4)c(=O)nc3[nH]2)c1` [Compound 415], for which the MIC in test [1] and in test [2] was under 16 µg/mL in each case.
On to `C[C@H](N)CCCc1cc(OC(F)(F)F)c(F)c(-c2cc3cn(-c4ccc([C@H]5CC(CCNC(=N)N)CN5)cc4)c(=O)nc3[nH]2)c1` (stereo partly shown) [Compound 470], for which the MIC in test [1] and in test [2] was under 16 µg/mL in each case.
Regarding `C[C@H](N)CC[C@H](N)c1cc(Cl)c(F)c(-c2cc3cn(-c4ccc([C@H](C)NCCCNC(=N)N)cc4)c(=O)nc3[nH]2)c1` [Compound 342], the MIC in test [1] and in test [2] was under 16 µg/mL in each case.
With `C[C@H](N)CCCc1cc(Cl)c(F)c(-c2cc3cn(-c4ccc([C@@H]5COC[C@H](CCN)N5)cc4)c(=O)nc3[nH]2)c1` [Compound 385], the MIC in test [1] and in test [2] was under 16 µg/mL throughout.
As for `C[C@H](N)CCCc1cc(Cl)c(F)c(-c2cc3cn(-c4ccc(CN[C@@H](C)C[C@H](CO)NC(=N)N)cc4)c(=O)nc3[nH]2)c1` [Compound 437], the MIC in test [1] and in test [2] was under 16 µg/mL each time.
In the case of `C[C@H](CN)CN1CC[C@@H](c2cc3cn(-c4ccc([C@H](C)NCCCNC(=N)N)cc4)c(=O)nc3[nH]2)C1` [Compound 570], the minimum inhibitory concentration (MIC) in test [1] and in test [2] was under 16 µg/mL in each case.
For the compound `C[C@H](N)CCCc1cc(Cl)c(F)c(-c2cc3cn(-c4ccc([C@H]5CC(CCNC(=N)N)CN5)cc4)c(=O)nc3[nH]2)c1` (stereo partly shown) [Compound 469], the MIC in test [1] and in test [2] was under 16 µg/mL throughout.
As to `C[C@H](N)CCCc1cc(OC(F)(F)F)c(F)c(-c2cc3cn(-c4ccc([C@@H](N)CCCN)cc4)c(=O)nc3[nH]2)c1` [Compound 411], the MIC in test [1] and in test [2] was under 16 µg/mL throughout.
